Active and inactive are the calls of the source. The calls are words filed in the database; no cut-off is given here.

For orientation: IC50 means the concentration at which inhibition is half-maximal. Higher therefore signals a need for much substance.

Test [1] concerns the target T1, Tubulin (Homo sapiens) (UniProt P68371+Q9H4B7+P0DPH7+P68366+Q13509+Q71U36+P04350+Q3ZCM7+P07437+P68363+Q9BQE3+Q6PEY2+Q13885+Q9BVA1+Q9BUF5). Briefly: Induction of microtubule fragmentation in human NCI-H1975 cells at 140 nM incubated for 12 hrs by DAPI staining based laser confocal microscopic method. The class given is cell-based.
In another test the test system is NCI-H1975. The test is described as follows: Antiproliferative activity against human NCI-H1975 cells incubated for 48 hrs by celltiter-Glo assay. The class given is functional, cell-based. The note with it: NCI-H1975, 48 h. (In general: ATP-based viability assays read luminescence as a measure of living cells.)
Test [2] addresses T1, Tubulin (Homo sapiens). The test is described as follows: Induction of microtubule fragmentation in human NCI-H1975 cells at 30 nM incubated for 12 hrs by DAPI staining based laser confocal microscopic method. The format is cell-based.
Test [3] deals with T1, Tubulin (Homo sapiens). Briefly: Induction of microtubule fragmentation in human NCI-H1975 cells at 50 nM incubated for 12 hrs by DAPI staining based laser confocal microscopic method. The class given is cell-based.
Test [4] concerns the target Katanin p60 ATPase-containing subunit A1 (Homo sapiens) (UniProt O75449). The test is described as follows: Binding affinity to katanin p60 in human NCI-H1975 cells using biotin labelled compound incubated for 16 hrs by streptavidin based immunoprecipitation method. The format is cell-based.

Sequence of Katanin p60 ATPase-containing subunit A1 (Homo sapiens) (O75449 whole entry): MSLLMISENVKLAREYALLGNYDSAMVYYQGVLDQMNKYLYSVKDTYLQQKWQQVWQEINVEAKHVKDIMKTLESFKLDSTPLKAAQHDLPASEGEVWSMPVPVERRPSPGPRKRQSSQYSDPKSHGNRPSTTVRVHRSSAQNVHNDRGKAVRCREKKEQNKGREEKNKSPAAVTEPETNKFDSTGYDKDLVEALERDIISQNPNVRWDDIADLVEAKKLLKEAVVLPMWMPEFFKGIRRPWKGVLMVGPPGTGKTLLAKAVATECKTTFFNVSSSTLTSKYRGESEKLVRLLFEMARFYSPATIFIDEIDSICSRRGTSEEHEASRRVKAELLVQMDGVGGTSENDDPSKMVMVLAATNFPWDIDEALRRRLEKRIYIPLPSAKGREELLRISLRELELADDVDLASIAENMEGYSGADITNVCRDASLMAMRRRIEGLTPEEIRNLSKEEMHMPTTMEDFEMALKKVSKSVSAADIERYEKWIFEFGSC

On to `CCOc1ccc(-c2nc(C(=O)NO)c3[nH]c(=O)n(-c4ccccc4OC)c3n2)cc1`, for which, at Tubulin (Homo sapiens) [1], the result was Active.

For the compound `COc1ccccc1-n1c(=O)[nH]c2c(C(N)=O)nc(-c3ccc4c(c3)OCO4)nc21`, in the test with NCI-H1975, the 50% inhibitory concentration (IC50) was 7.6 µM. That is a single-digit micromolar value.

In the case of `CCOc1ccc(-c2nc(C(N)=O)c3[nH]c(=O)n(-c4ccccc4OC)c3n2)cc1`, the result on Tubulin (Homo sapiens) [2] was Active.

As to `CCOc1ccc(-c2nc(/C(N)=N/O)c3[nH]c(=O)n(-c4ccccc4OC)c3n2)cc1`, the result at Tubulin (Homo sapiens) [3] was Active.

In the case of `CCOc1ccc(-c2nc(C(N)=O)c3[nH]c(=O)n(-c4cccc(C(=O)NCCCCCNC(=O)CCCC[C@@H]5SC[C@@H]6NC(=O)N[C@@H]65)c4)c3n2)cc1`, the outcome in test [4] was Active.

For `CC(C)(C)OC(=O)NCCCCCNC(=O)CCCC[C@@H]1SC[C@@H]2NC(=O)N[C@@H]21`, the outcome in test [4] was inactive.

Regarding `CCOc1ccc(-c2nc(/C(N)=N/O)c3[nH]c(=O)n(-c4cccc(C(=O)NCCCCCNC(=O)CCCC[C@@H]5SC[C@@H]6NC(=O)N[C@@H]65)c4)c3n2)cc1`, in test [4], the result was Active.

For the origin of these results see ChEMBL document CHEMBL4359863, “Structure-guided development of purine amide, hydroxamate, and amidoxime for the inhibition of non-small cell lung cancer” (Eur J Med Chem, 2019).
